# Data published in US12042481B2, “Use of (1R,5S)-(+)-1-(naphthalen-2-yl)-3-azabicyclo[3.1.0]hexane in the treatment of conditions affected by monoamine neurotransmitters” (priority 2011, dated 2024).
# Entries after “also recorded” stand apart in the source; their conditions may differ.
# Legend:
# [1] = target: T1, recombinant human 5-HT transporter (Homo sapiens, UniProt P31645); test: Inhibition of [3H]serotonin uptake in HEK-293 cells transfected with the 5-HT uptake transporter; type: cell-based
# T1 construct: host or cells: HEK-293
# Experimental: The ability of (1R,5S)-(+)-1-(naphthalen-2-yl)-3-azabicyclo[3.1.0]hexane for inhibiting transport of norepinephrine (NE) and/or dopamine (DA) and/or serotonin (5-HT) was evaluated using cell lines (such as the HEK 293 cell line) that stably express recombinant human NE, DA, and 5-HT transporters, respectively. Techniques for stably transfecting mammalian cell lines with neurotransmitter transporters and measuring the effects of drugs on amine uptake have been described in the literature (e.g., Eshleman A J, J Pharmacol Exp Ther 289:877-885, 1999) and are well known to those skilled in the art
# Monoamine uptake was determined in MDCK, CHO-K1, and HEK-293 cell lines respectively transfected with NE, DA, and 5-HT uptake transporters by MDS Pharma Services (Taipei, Taiwan 112, R. O. C.). The cells were incubated in 5 mM Tris-HCl, and 7.5 mM HEPES buffer, pH 7.1, containing 120 mM NaCl, 5.4 mM KCl, 1.2 mM CaCl2, 1.2 mM MgSO4, 5 mM D-glucose, and 1 mM Ascorbic Acid. The cellular homogenates were incubated with radioligands and various concentrations of drugs for 10 minutes at 25° C. The [^3H]-radioligands incorporated into the cells were determined according to published methods using liquid scintillation counting (Perovic and Müller 1995; Eshleman et al., 1999). […]
# [2] = tested on: monoamine uptake transporters; test: Microdialysis in rat striatum (extracellular DA, HVA); type: in vivo
# Experimental: To evaluate the effect of (1R,5S)-(+)-1-(naphthalen-2-yl)-3-azabicyclo[3.1.0]hexane on monoamine uptake transporters in vivo, microdialysis studies were performed in rat brain regions.
# Microdialysis studies were conducted using male Wistar rats (250-300 g) bred at the Institute of Pharmacology, the Polish Academy of Sciences, Krakow, Poland. The rats (250-300 g) were housed on a 12 h/12 h light/dark cycle at a constant temperature and humidity, and were provided with food and water ad libitum. The microdialysis procedure has been previously described (Popik et al., 2006). Briefly, the rats were anaesthetized with ketamine (75 mg/kg IM) and xylazine (10 mg/kg IM), placed in a stereotaxic apparatus (David Kopf Instruments, Tujunga, CA, USA) with their skulls exposed. Small holes were drilled in the skull for insertion of the vertical microdialysis probes into the prefrontal cortex and striatum, respectively using the following coordinates: 2.9 mm anterior from the bregma, 0.8 mm lateral from the sagittal suture and −4.5 ventral from the dura surface (prefrontal cortex); 1.8 mm anterior from the bregma, 2.7 mm lateral from the sagittal suture and −7.0 mm ventral from the dura surface (striatum) (Paxinos and Watson, 1998). Microdialysis probes were constructed by inserting two fused silica tubes (30 and 35 mm long, 150 μm o.d.; Polymicro Technologies Inc., Phoenix, AZ, USA) into a microdialysis fiber (220 μm o.d.; AN69, Hospal, Bologna, Italy). The tube assembly was placed in a stainless steel cannula (22 G, 10 mm) forming the shaft of the probe. Portions of the inlet and outlet tubes were individually placed inside polyethylene PE-10 tubing and were glued for protection. The free end of the dialysis fibre was sealed, and 3 mm of the exposed length used for dialysis in prefrontal cortex and 4 mm for striatum. One day after the surgery and probe implantation, the inlet of the dialysis probes was connected to a syringe pump (BAS, IN, USA) which delivered an artificial cerebrospinal fluid (aCSF) composed of [in mM]: NaCl 145, KCl 2.7, MgCl2 1.0, CaCl2 1.2; pH=7.4 at a flow rate of 1.5 μl/min. After a two hour rinsing period to stabilize the extracellular level of neurotransmitters, 3-4 baseline samples were collected in 20 minute sampling periods. Next, (1R,5S)-(+)-1-(naphthalen-2-yl)-3-azabicyclo[3.1.0]hexane (dissolved in 0.9% saline solution) at doses of 10 or 20 mg/kg intraperioneally (i.p.) was administered to the animals at 4 ml/kg and consequent dialysate fractions were collected every 20 min for 3 hrs. At the end of the experiments the rats were sacrificed and their brains were histologically examined to validate the correct probe placement
# Dopamine, and serotonin (5-HT) were analysed by HPLC with electrochemical detection. […] The flow rate was 0.5 ml/min, and the applied potential of a 3 mm glassy carbon electrode was +600 mV with a sensitivity of 2 nA/V. Norepinephrine was measured using HPLC system equipped with a P580 pump (Dionex, CA, USA) connected to a BAS injection valve with a 10 μI injection loop and a BDS-Hypersil analytical column (2.0×100 mm, a 3 μm, Thermo Electron Corp., UK). […] NE in the dialysates was detected with a BAS UniJet radial flow detector cell coupled to a LC-4B amperometric detector (BAS, IN, USA). […]
# [3] = tested on: male CD-1 (Crl.) derived mice; test: Mouse spontaneous locomotor activity; type: in vivo
# Experimental: For the locomotor activity determination, male CD-1 (Crl.) derived mice were orally administered (1R,5S)-(+)-1-(naphthalen-2-yl)-3-azabicyclo[3.1.0]hexane as described in Example IV. Locomotor activity for mice in groups of 10 was assessed by placing mice individually into custom built chambers in a quiet isolated 22° C. room (conducted by MDS Pharma Services, Taipei, Taiwan 112, R. O. C.). At 15-minute intervals over 2 hours post-dosing, total travel distances (in cm) for individual animals were recorded using the Etho Vision Pro System (Noldus, USA).
# T1 sequence (P31645 whole entry): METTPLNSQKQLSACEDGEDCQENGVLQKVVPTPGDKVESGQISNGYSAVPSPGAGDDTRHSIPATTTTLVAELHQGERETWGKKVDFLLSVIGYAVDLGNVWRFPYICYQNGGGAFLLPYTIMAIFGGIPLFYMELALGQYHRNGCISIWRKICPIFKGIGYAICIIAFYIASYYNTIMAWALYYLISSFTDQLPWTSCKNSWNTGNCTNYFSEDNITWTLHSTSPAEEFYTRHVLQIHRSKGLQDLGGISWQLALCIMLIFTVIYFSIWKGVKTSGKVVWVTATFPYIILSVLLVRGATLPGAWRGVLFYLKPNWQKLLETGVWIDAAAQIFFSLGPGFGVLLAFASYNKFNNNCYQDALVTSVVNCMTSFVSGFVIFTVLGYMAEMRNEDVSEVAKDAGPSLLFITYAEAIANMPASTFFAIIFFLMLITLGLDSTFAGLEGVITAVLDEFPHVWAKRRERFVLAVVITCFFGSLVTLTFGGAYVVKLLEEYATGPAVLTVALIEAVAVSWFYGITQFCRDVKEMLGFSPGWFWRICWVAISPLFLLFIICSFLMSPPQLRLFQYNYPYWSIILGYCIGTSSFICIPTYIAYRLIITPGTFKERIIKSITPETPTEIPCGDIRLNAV
smiles,measurement,setting,value
"c1ccc2cc([C@]34CNC[C@H]3C4)ccc2c1 [(1R,5S)-(+)-1-(naphthalen-2-yl)-3-azabicyclo[3.1.0]hexane]",IC50,[1],0.083 µM
same,duration of effect on extracellular DA,[2],over 3 hours
same,effect on extracellular concentrations of HVA (metabolite of DA),[2],decreased
same,time within which extracellular DA was markedly increased,[2],≤ 40 min
same,peak increase of extracellular DA,[2]; 10 mg/kg i.p.,over 275 % of baseline
same,peak increase of extracellular DA,[2]; 20 mg/kg i.p.,> 375 % of baseline
same,locomotor activity (FIG. 5),"[3]; 20, 40 mg/kg p.o., 15 minute epochs, p<0.05 versus vehicle",decreased locomotor activity at several time points
same,spontaneous locomotor activity,"[3]; oral, distance traveled at 15-minute intervals over 2 hours",did not significantly increase; also recorded: significantly decrease locomotor activity at several time points
